Laboratory results taken from ChEMBL document CHEMBL1149601, “Molecular design, chemical synthesis, and biological evaluation of '4-1' pentacyclic aryl/heteroaryl-imidazonaphthalimides” (Bioorg Med Chem, 2007).

Tests used:
SMMC-7721 = assay: Growth inhibition of human SMMC7721 cells by MTT assay; assay type: functional, cell-based
HeLa = assay: Growth inhibition of human HeLa cells by MTT assay; assay type: functional, cell-based
A549 = assay: Growth inhibition of human A549 cells by SRB assay; assay type: functional, cell-based
DNA = assay: Binding affinity to calf thymus DNA; assay type: nucleic-acid assay; settings: Bos taurus
HL-60 = assay: Growth inhibition of human HL60 cells by MTT assay; assay type: functional, cell-based
P388 = assay: Growth inhibition of mouse P388 cells by MTT assay; assay type: functional, cell-based

Question: Which IC50 (SMMC-7721) does the source give for `CN(C)CCN1C(=O)c2cccc3c2c(cc2[nH]c(-c4ccc(C(F)(F)F)cc4)nc23)C1=O` here?
Answer: The IC50 was 1630 nM.

Question: And the IC50 (HeLa)?
Answer: Its IC50 is 400 nM.

Question: And the IC50 (A549)?
Answer: Its IC50 is 26200 nM.

Question: What about the ΔTm (DNA) of the same compound?
Answer: The ΔTm was 4.8 °C.

Question: And the IC50 (HL-60)?
Answer: Its IC50 is 4900 nM.

Question: And the IC50 (P388)?
Answer: The IC50 was 710 nM.

Question: Which IC50 (SMMC-7721) does the source give for `CN(C)CCN1C(=O)c2cccc3c2c(cc2[nH]c(-c4ccc[nH]4)nc23)C1=O` here?
Answer: The IC50 was 2990 nM.

Question: What about the IC50 (HeLa) of the same compound?
Answer: Its IC50 is 3300 nM.

Question: What about the IC50 (A549) of the same compound?
Answer: Its IC50 is 450 nM.

Question: What about the ΔTm (DNA) of the same compound?
Answer: The ΔTm was 5.7 °C.

Question: What about the IC50 (HL-60) of the same compound?
Answer: Its IC50 is 3030 nM.

Question: And the IC50 (P388)?
Answer: Its IC50 is 210 nM.

Question: Which results are given for `COc1ccc(-c2nc3c(cc4c5c(cccc53)C(=O)N(CCN(C)C)C4=O)[nH]2)cc1`?
Answer: IC50 (SMMC-7721): 1350 nM; IC50 (HeLa): 210 nM; IC50 (A549): 2160 nM; ΔTm (DNA): 7 °C; IC50 (HL-60): 460 nM; IC50 (P388): 3720 nM

Question: What does the source list for `COc1cc(-c2nc3c(cc4c5c(cccc53)C(=O)N(CCN(C)C)C4=O)[nH]2)ccc1O`?
Answer: IC50 (SMMC-7721): > 100000 nM; IC50 (HeLa): > 100000 nM; IC50 (A549): 5080 nM; ΔTm (DNA): 7.8 °C; IC50 (HL-60): 50500 nM; IC50 (P388): 1920 nM

Question: How did the IC50 (SMMC-7721) turn out when `CN(C)CCN1C(=O)c2cccc3c2c(cc2[nH]c(-c4ccc(O)cc4)nc23)C1=O` was run?
Answer: Its IC50 is > 100000 nM.

Question: What about the IC50 (HeLa) of the same compound?
Answer: The IC50 was 13100 nM.

Question: And the IC50 (A549)?
Answer: The IC50 was 17800 nM.

Question: And the ΔTm (DNA)?
Answer: Its ΔTm is 6.3 °C.

Question: What about the IC50 (HL-60) of the same compound?
Answer: Its IC50 is 23000 nM.

Question: And the IC50 (P388)?
Answer: Its IC50 is 1100 nM.

Question: `CN(C)CCN1C(=O)c2cccc3c2c(cc2[nH]c(-c4ccco4)nc23)C1=O` was tested. Which IC50 (SMMC-7721) did it give?
Answer: Its IC50 is 1300 nM.

Question: And the IC50 (HeLa)?
Answer: The IC50 was 1730 nM.

Question: What about the IC50 (A549) of the same compound?
Answer: The IC50 was 7230 nM.

Question: And the ΔTm (DNA)?
Answer: Its ΔTm is 6.8 °C.

Question: And the IC50 (HL-60)?
Answer: Its IC50 is 6240 nM.

Question: What about the IC50 (P388) of the same compound?
Answer: The IC50 was 650 nM.

Question: `CN(C)CCN1C(=O)c2cccc3c2c(cc2[nH]c(-c4ccc(Cl)cc4)nc23)C1=O` was tested. Which IC50 (SMMC-7721) did it give?
Answer: The IC50 was 270 nM.

Question: What about the IC50 (HeLa) of the same compound?
Answer: The IC50 was 280 nM.

Question: What about the IC50 (A549) of the same compound?
Answer: Its IC50 is 9130 nM.

Question: And the ΔTm (DNA)?
Answer: Its ΔTm is 7.1 °C.

Question: What about the IC50 (HL-60) of the same compound?
Answer: The IC50 was 3280 nM.

Question: What about the IC50 (P388) of the same compound?
Answer: The IC50 was 950 nM.

Question: Which IC50 (SMMC-7721) does the source give for `CN(C)CCN1C(=O)c2cccc3c2c(cc2[nH]c(-c4ccoc4)nc23)C1=O` here?
Answer: Its IC50 is 880 nM.

Question: What about the IC50 (HeLa) of the same compound?
Answer: The IC50 was 13900 nM.

Question: And the IC50 (A549)?
Answer: Its IC50 is 7480 nM.

Question: What about the ΔTm (DNA) of the same compound?
Answer: The ΔTm was 6.7 °C.

Question: What about the IC50 (HL-60) of the same compound?
Answer: Its IC50 is 5210 nM.

Question: And the IC50 (P388)?
Answer: Its IC50 is 710 nM.

Question: How did the IC50 (SMMC-7721) turn out when `Cc1ccc(-c2nc3c(cc4c5c(cccc53)C(=O)N(CCN(C)C)C4=O)[nH]2)cc1` was run?
Answer: Its IC50 is 580 nM.

Question: What about the IC50 (HeLa) of the same compound?
Answer: Its IC50 is 320 nM.

Question: What about the IC50 (A549) of the same compound?
Answer: The IC50 was 5530 nM.

Question: What about the ΔTm (DNA) of the same compound?
Answer: Its ΔTm is 6.6 °C.

Question: And the IC50 (HL-60)?
Answer: Its IC50 is 1040 nM.

Question: What about the IC50 (P388) of the same compound?
Answer: The IC50 was 5500 nM.

Question: For `CN(C)CCN1C(=O)c2cccc3c2c(cc2[nH]c(-c4ccncc4)nc23)C1=O`, which IC50 (SMMC-7721) is on record?
Answer: Its IC50 is 1760 nM.

Question: And the IC50 (HeLa)?
Answer: The IC50 was 5350 nM.

Question: What about the IC50 (A549) of the same compound?
Answer: The IC50 was 60900 nM.

Question: What about the ΔTm (DNA) of the same compound?
Answer: The ΔTm was 4.8 °C.

Question: What about the IC50 (HL-60) of the same compound?
Answer: Its IC50 is 2660 nM.

Question: What about the IC50 (P388) of the same compound?
Answer: Its IC50 is 5650 nM.

Question: Which results are given for `CN(C)CCN1C(=O)c2cccc3c2c(cc2[nH]c(-c4ccsc4)nc23)C1=O`?
Answer: IC50 (SMMC-7721): 930 nM; IC50 (HeLa): 540 nM; IC50 (A549): 8590 nM; ΔTm (DNA): 8.4 °C; IC50 (HL-60): 580 nM; IC50 (P388): 160 nM

Question: With `CN(C)CCN1C(=O)c2cccc3c2c(cc2[nH]c(-c4cccn4C)nc23)C1=O` as the compound, how does the IC50 (SMMC-7721) read?
Answer: Its IC50 is 2900 nM.

Question: What about the IC50 (HeLa) of the same compound?
Answer: Its IC50 is 7980 nM.

Question: What about the IC50 (A549) of the same compound?
Answer: The IC50 was 410 nM.

Question: What about the ΔTm (DNA) of the same compound?
Answer: Its ΔTm is 6.2 °C.

Question: What about the IC50 (HL-60) of the same compound?
Answer: Its IC50 is 3660 nM.

Question: What about the IC50 (P388) of the same compound?
Answer: Its IC50 is 210 nM.

Question: Which results are given for `CN(C)CCN1C(=O)c2cccc3cc(N)cc(c23)C1=O` [AMONAFIDE]?
Answer: IC50 (SMMC-7721): 4150 nM; IC50 (HeLa): 1400 nM; IC50 (A549): 13000 nM; IC50 (HL-60): 1630 nM; IC50 (P388): 4560 nM

Question: `CN(C)CCN1C(=O)c2cccc3c2c(cc2[nH]c(-c4cccs4)nc23)C1=O` was tested. Which IC50 (SMMC-7721) did it give?
Answer: Its IC50 is 3270 nM.

Question: And the IC50 (HeLa)?
Answer: Its IC50 is 1340 nM.

Question: And the IC50 (A549)?
Answer: The IC50 was 6670 nM.

Question: And the ΔTm (DNA)?
Answer: The ΔTm was 6.9 °C.

Question: What about the IC50 (HL-60) of the same compound?
Answer: Its IC50 is 590 nM.

Question: What about the IC50 (P388) of the same compound?
Answer: Its IC50 is 4150 nM.

Question: What does the source list for `CN(C)CCN1C(=O)c2cccc3c2c(cc2[nH]c(-c4ccccc4)nc23)C1=O`?
Answer: IC50 (SMMC-7721): 3360 nM; IC50 (HeLa): 400 nM; IC50 (A549): 7540 nM; ΔTm (DNA): 7.2 °C; IC50 (HL-60): 860 nM; IC50 (P388): 860 nM

Question: With `CN(C)CCN1C(=O)c2cccc3c2c(cc2[nH]c(-c4ccccn4)nc23)C1=O` as the compound, how does the IC50 (SMMC-7721) read?
Answer: The IC50 was 3360 nM.

Question: And the IC50 (HeLa)?
Answer: Its IC50 is 2710 nM.

Question: What about the IC50 (A549) of the same compound?
Answer: Its IC50 is 9330 nM.

Question: What about the ΔTm (DNA) of the same compound?
Answer: The ΔTm was 3.8 °C.

Question: What about the IC50 (HL-60) of the same compound?
Answer: The IC50 was 300 nM.

Question: And the IC50 (P388)?
Answer: Its IC50 is 770 nM.

Question: With `CN(C)CCN1C(=O)c2cccc3c2c(cc2[nH]c(-c4cccnc4)nc23)C1=O` as the compound, how does the IC50 (SMMC-7721) read?
Answer: Its IC50 is 1290 nM.

Question: What about the IC50 (HeLa) of the same compound?
Answer: Its IC50 is 1160 nM.

Question: What about the IC50 (A549) of the same compound?
Answer: The IC50 was 9970 nM.

Question: What about the ΔTm (DNA) of the same compound?
Answer: The ΔTm was 4 °C.

Question: And the IC50 (HL-60)?
Answer: The IC50 was 1330 nM.

Question: And the IC50 (P388)?
Answer: Its IC50 is 2310 nM.

Question: Which IC50 (SMMC-7721) does the source give for `CN(C)CCN1C(=O)c2cccc3c2c(cc2[nH]c(-c4ccc(N(C)C)cc4)nc23)C1=O` here?
Answer: Its IC50 is 2860 nM.

Question: What about the IC50 (HeLa) of the same compound?
Answer: Its IC50 is 250 nM.

Question: What about the IC50 (A549) of the same compound?
Answer: Its IC50 is 8500 nM.

Question: What about the ΔTm (DNA) of the same compound?
Answer: Its ΔTm is 12.1 °C.

Question: And the IC50 (HL-60)?
Answer: The IC50 was 1080 nM.

Question: And the IC50 (P388)?
Answer: Its IC50 is 1680 nM.

Question: Which results are given for `CCOc1ccc(-c2nc3c(cc4c5c(cccc53)C(=O)N(CCN(C)C)C4=O)[nH]2)cc1`?
Answer: IC50 (SMMC-7721): 1020 nM; IC50 (HeLa): 520 nM; IC50 (A549): 14700 nM; ΔTm (DNA): 10.5 °C; IC50 (HL-60): 4580 nM; IC50 (P388): 2480 nM

Question: `COc1ccc(-c2nc3c(cc4c5c(cccc53)C(=O)N(CCN(C)C)C4=O)[nH]2)cc1OC` was tested. Which IC50 (SMMC-7721) did it give?
Answer: Its IC50 is 220 nM.

Question: And the IC50 (HeLa)?
Answer: Its IC50 is 5190 nM.

Question: What about the IC50 (A549) of the same compound?
Answer: Its IC50 is 600 nM.

Question: What about the ΔTm (DNA) of the same compound?
Answer: The ΔTm was 13.3 °C.

Question: And the IC50 (HL-60)?
Answer: Its IC50 is 10400 nM.

Question: And the IC50 (P388)?
Answer: Its IC50 is 1070 nM.
